Columns and labels:
[1] = tested on: lung-cancer cell line LLC2; experiment: Cancer cell killing ability of CD3+ T cells from PI3K inhibitor-treated mice, co-culture with lung-cancer cell line, annexin V/PI flow cytometry; assay type: cell-based, mouse
Protocol: First, 3 μg of a neoplasm lysate obtained from lung-cancer cell line LLC2 and 1 μg of an adjuvant LPS (lipopolysaccharide) are injected into 6 to 8 weeks old BALBc mice as an allogeneic model once a week in an intramuscular injection manner. At the same time, 50 mpk (mg/kg) of BKM-120 as a PI3K inhibitor (iPI3K) is orally administered to the mice belonging to the PI3K inhibitor-treated experimental group once a day.
Then, lymphocytes are separated from the splenocyte of the mouse subjected to the PI3K inhibitor for a total of 3 weeks. Only CD3+ T cells are obtained using a magnetic-activated cell sorter (MACS).
Then, the obtained CD3+ T cells are co-cultured for 24 hours together with the lung-cancer cell line from which the lysate is obtained. In this connection, a ratio between the numbers of the T cell and the lung-cancer cell line may be defined as 10 T cells: 1 lung-cancer cell line. Furthermore, the T cells and lung-cancer cell line are cultured under a normal condition, a hypoxic condition, and a low glucose condition, respectively, to identify cancer cell killing ability in poor tumor microenvironment.
Then, the co-cultured T cells and lung-cancer cell line are subjected to flow cytometry analysis using an apoptosis kit and CD3+ antibodies.
First, referring to (a) of FIG. 3A, the result of the cancer cell killing ability of the T cell under the normal condition due to the treatment of the PI3K inhibitor is shown. In this connection, the x-axis and y-axis indicate apoptosis using annexin V and PI (propidium iodine) as staining reagent, respectively.

pAKT (phosphoAKT) = experiment: pAKT expression in CD4 and CD8 T cells by flow cytometry (MFI); assay type: cell-based, mouse; settings: for AKT expression relative to control: after 48 hours
Protocol: First, referring to FIG. 6, an expression level of pAKT (phosphoAKT) in an active state in the T cell due to PI3K inhibitor treatment is shown. In this connection, in order to identify AKT activation of T cells due to PI3K inhibitor treatment, the CD3+ T cells obtained in FIG. 2 are used. Furthermore, the obtained CD3+ T cells are co-cultured for 48 hours together with CD11c positive dendritic cells, anti-CD3 and anti-CD28. The pAKT expression is measured via flow cytometry in 6 and 48 hours after the co-culture has started. Furthermore, expression of pAKT is indicated as mean fluorescence intensity (MFI). Furthermore, CD4 and CD8 positive cells are used as T cells to measure expression of pAKT. In this connection, CD4 and CD8 are present in the cell membrane of the T cell and are cell-binding proteins that bind to non-polymorphic regions of class II MHC and class I MHC, respectively. CD4 may be a helper T cell as a T cell lineage marker. CD8 may refer to a cytotoxic T cell.

GLUT1 [2] = experiment: GLUT1 expression in T cells due to PI3K inhibitor and AKT inhibitor treatment; assay type: cell-based; settings: both helper and cytotoxic T cells; p<0.05
Text: Furthermore, referring to FIG. 7, the GLUT1 expression level in the T cells due to PI3K inhibitor and AKT inhibitor treatment is shown.

GLUT1 [3] = experiment: GLUT1 expression in T cell based on type of PI3K inhibitor
Text: More specifically, referring to (a) of FIG. 12, the results of GLUT1 expression according to the type of PI3K inhibitor in the helper T cell are shown. In this connection, the PI3K inhibitor may include BKM 120 that may inhibit all subtypes, CAL-101 that may inhibit only p110δ, IPI-145 capable of inhibiting p110γ and P110δ, BYLT719 capable of inhibiting only p110α, and TGX-211 capable of inhibiting only p110β.
Referring to (b) of FIG. 12, the results of GLUT1 expression according to the type of PI3K inhibitor in cytotoxic T cells are shown.

[4] = tested on: lung-cancer cell line LLC2; experiment: Percentage of immune cells relative to lung-cancer cell line LLC2; assay type: in vivo
Text: Referring to FIG. 9B, the percentage of immune cells relative to the lung-cancer cell line LLC2 due to PI3K inhibitor treatment is shown. Referring first to FIG. 9B (a), the percentage of CD3+ CD8+ T cells relative to LLC2 as a lung-cancer cell line due to PI3K inhibitor treatment is shown. In this connection, CD3+ CD8+ T cells may refer to cytotoxic T cells (Tc cells) capable of destroying damaged cells, infected cells, and tumor cells. Next, referring to (b) of FIG. 9B, the percentage of CD3+ CD4+ CD25+ Foxp3 T cells relative to LLC2 as a lung-cancer cell line due to the PI3K inhibitor treatment is shown. In this connection, the CD3+ CD4+ CD25+ Foxp3 T cells refer to regulatory T cells (Treg) that may maintain immuno-tolerance and autoimmunity, that is, may inhibit the immune response of other cells. Next, referring to (c) of FIG. 9B, the percentage of CD3+ TIL cells relative to LLC2 as a lung-cancer cell line due to the PI3K inhibitor treatment is shown. In this connection, CD3+ TIL cell may refer to a tumor infiltrating lymphocyte (TIL) that infiltrates a tumor cell cluster, thereby enhancing the T cell's tumor killing ability, that is, an anti-cancer effect of the T cell. Next, referring to (d) of FIG. 9B, the percentage of MDSC cells relative to the lung-cancer cell line LLC2 due to the PI3K inhibitor treatment is shown. In this connection, the MDSC cell may refer to immature myeloid cells which inhibit the immune response of immune cells such as T cells and NK cells, and induce the generation of regulatory T cells (Treg), thereby to promote the growth of cancer cells.

[5] = hypoxic condition, 50 mpk BKM-120, 3 weeks, 24 hours co-culture
[6] = low glucose condition, 50 mpk BKM-120, 3 weeks, 24 hours co-culture
[7] = normal condition, 50 mpk BKM-120, 3 weeks, 24 hours co-culture

Nc1cc(C(F)(F)F)c(-c2cc(N3CCOCC3)nc(N3CCOCC3)n2)cn1 [BKM 120, buparlisib]
first quadrant (stained by both annexin V and PI, complete death of the cancer cell) [1, 5]: 47.4% | fourth quadrant (annexin V / PI) [1, 5]: 7.36% | second quadrant (annexin V / PI) [1, 5]: 26.7% | third quadrant (annexin V / PI) [1, 5]: 18.5% | first quadrant (stained by both annexin V and PI, complete death of the cancer cell) [1, 6]: 36.1% | fourth quadrant (annexin V / PI) [1, 6]: 3.71% | second quadrant (annexin V / PI) [1, 6]: 47.2% | third quadrant (annexin V / PI) [1, 6]: 13.1% | fourth quadrant (annexin V / PI) [1, 7]: 11.5% | second quadrant (annexin V / PI) [1, 7]: 15.5% | third quadrant (annexin V / PI) [1, 7]: 10.2% | first quadrant (stained by both annexin V and PI, complete death of the cancer cell) ([1]; normal condition, T cells from mice given 50 mpk BKM-120 orally once a day for 3 weeks, 10 T cells:1 LLC2, 24 hours): 62.8% | AKT expression level relative to the AKT expression level at the start of culture (pAKT (phosphoAKT); 48 hours after the start of culture): ≥ 3 times | AKT expression versus control (pAKT (phosphoAKT); cytotoxic T cells (CD8), 0 to 25 hours): lower AKT expression than that of the control | AKT expression versus control (pAKT (phosphoAKT); cytotoxic T cells (CD8), after 25 hours): higher AKT expression than that of the control | AKT expression relative to control (pAKT (phosphoAKT); cytotoxic T cells (CD8)): 1.3 to 1.7 times | AKT expression versus control (pAKT (phosphoAKT); helper T cell (CD4), 0 to 20 hours): lower AKT expression than that of the control | AKT expression versus control (pAKT (phosphoAKT); helper T cell (CD4), after 20 hours): higher AKT expression than that of the control | AKT expression relative to control (pAKT (phosphoAKT); helper T cell (CD4)): 1.5 to 2 times | time after the start of the culture at which the AKT level is increased again to the level before the PI3K treatment (pAKT (phosphoAKT); immune cells cultured after PI3K inhibitor treatment): 20 h | GLUT1 expression in iPI3K+/iAKT− group relative to iPI3K−/iAKT−, iPI3K−/iAKT+ and iPI3K+/iAKT+ groups (GLUT1 [2]): 2 to 3 times | GLUT1 expression level versus BYLT719 and TGX-211 inhibitors (GLUT1 [3]; cytotoxic T cells): higher GLUT1 expression levels | GLUT1 expression level versus BYLT719 and TGX-211 inhibitors (GLUT1 [3]; helper T cell): higher GLUT1 expression levels | average percentage of CD3+ CD4+ CD25+ Foxp3 T cells (Treg) ([4]; 35 mpk): 17% | average percentage of CD3+ CD8+ T cells ([4]; 35 mpk): 38% | average percentage of MDSC cells ([4]; 35 mpk): 32% | distribution of percentage of CD3+ CD4+ CD25+ Foxp3 T cells (Treg) ([4]; 35 mpk): 16 to 19% | distribution of percentages of CD3+ CD8+ T cells ([4]; 35 mpk): 35 to 42% | distribution of the percentage of MDSC cells ([4]; 35 mpk): 31 to 33% | percentage of CD3+ TIL cells on average ([4]; 35 mpk): 0.4% | average percentage of CD3+ CD4+ CD25+ Foxp3 T cells (Treg) ([4]; 50 mpk): 15% | average percentage of CD3+ CD8+ T cells ([4]; 50 mpk): 42% | average percentage of MDSC cells ([4]; 50 mpk): 24% | distribution of percentage of CD3+ CD4+ CD25+ Foxp3 T cells (Treg) ([4]; 50 mpk): 13 to 17% | distribution of percentages of CD3+ CD8+ T cells ([4]; 50 mpk): 37 to 50% | distribution of the percentage of MDSC cells ([4]; 50 mpk): 22 to 26% | percentage of CD3+ TIL cells on average ([4]; 50 mpk): 0.9%
